This passage reports refractive index, mass density and Normal boiling temperature results from the NIST ThermoML archive (doi:10.1016/j.jct.2004.12.003).

Numbers after ± are expanded uncertainties.

Series [1] can be described thus: refractive index (Na D-line) (dimensionless). The note with it: 293.15 K; 101.33 kPa; Liquid; Standard Abbe refractometry.
For series [2] the following is noted: Liquid; for mass density: 293.15 K, 101.33 kPa.

For orientation: refractive index means the speed of light in vacuum divided by its phase velocity in the sample. For orientation: mass density means the mass of a sample divided by its volume. Regarding `COC(=O)c1ccccc1C(=O)OC` [dimethyl 1,2-benzenedicarboxylate], the refractive index in series [1] is 1.514 ± 0.0011. Moreover, in series [2], the mass density is listed as 1191 ± 0.8 kg/m3 and the Normal boiling temperature was found to be 283.93 ± 0.08 °C.
As to `CCC(=O)O` [propanoic acid], the refractive index in series [1] is reported as 1.3811 ± 0.0011. Further, in series [2], the mass density is reported as 992.7 ± 0.5 kg/m3 and the Normal boiling temperature came out at 141.0 ± 0.08 °C.
